Several values for one entry are separate records, joined by “and”; a condition that tells them apart may be missing. Equal entries are not always repeated.
Tested on: patients with prior myocardial infarction (CARE study)
Experiment: CARE aligned analysis (prospective and case/control design, white males): association of genotypes with pravastatin efficacy (Tables 13, 15)
Type: in vivo, human
Settings: for Pravastatin Patients (%) / Pravastatin Patients n/total / 2 Rare Alleles (%), Pravastatin Patients / 2 Rare Alleles n/total, Pravastatin Patients: F&NF MI; for Pravastatin Patients (%) / Pravastatin Patients n/total: WM; for 2 rare alleles n/total (%), pravastatin patients / Pravastatin vs placebo odds ratio, 0 rare alleles / Pravastatin vs placebo odds ratio, 1 rare allele / Pravastatin vs placebo odds ratio, 2 rare alleles: CARE, F MI/SD/NF MI
Protocol: The data presented in Table 8 based on an association of genotypes with pravastatin efficacy of the CARE samples were further analyzed and presented in Table 13. The further analysis was performed to align the data obtained from the analysis of the CARE samples, which was a prospective study, to the analysis of the WOSCOP samples, which was a case/control study. Table 13 also presents an analysis of the association of genotypes with pravastatin efficacy in the WOSCOPs samples. Relative to the analysis performed on the data presented in Table 8, there are two significant differences to determine if the SNP influenced pravastatin efficacy. Data obtained from the CARE samples were separated by study design into two groups, those in the prospective study design group and those in the case/control study design group. The original care study contained 16 protocol defined cardiovascular disease defined endpoints and 150 other phenotypes. […] The control groups used to compare the data were also divided into two groups, the “all possible” control group and the “cleaner” control group. […] Because the participants in the WOSCOPs trial were all white males, only data obtained from white males in the CARE study were analysed. Data from the “all possible” and “cleaner” controls were compared to data obtained from the cases in the prospective study design while only data from “cleaner” controls were compared to cases in the case/control study design. The data from the case/control cohorts were analysed using conditional logistic regression (as opposed to logistic regression used for the original anaylsis).
The anaylsis was refined as described for both Tables 13 and 14.

[1] = HLA-DPB1 hCV8851085, 0 Rare Alleles, CARE Prospective, Cleaner controls
[2] = HLA-DPB1 hCV8851085, 1 Rare Allele, CARE Case/Control, All Possible controls
[3] = HLA-DPB1 hCV8851085, 1 Rare Allele, CARE Case/Control, Cleaner controls
[4] = HLA-DPB1 hCV8851085, 1 Rare Allele, CARE Prospective, All Possible controls
[5] = HLA-DPB1 hCV8851085, 1 Rare Allele, CARE Prospective, Cleaner controls
[6] = HLA-DPB1 hCV8851085, Case/Control
[7] = HLA-DPB1 hCV8851085, Prospective
[8] = HLA-DPB1 hCV25651174, Case/Control
[9] = HLA-DPB1 hCV25651174, Prospective
[10] = HLA-DQB1 hCV9494470, 0 Rare Alleles, CARE Case/Control, All Possible controls
[11] = HLA-DQB1 hCV9494470, 0 Rare Alleles, CARE Case/Control, Cleaner controls
[12] = HLA-DQB1 hCV9494470, 0 Rare Alleles, CARE Prospective, All Possible controls
[13] = HLA-DQB1 hCV9494470, 0 Rare Alleles, CARE Prospective, Cleaner controls
[14] = HLA-DQB1 hCV9494470, 1 Rare Allele, CARE Case/Control, All Possible controls
[15] = HLA-DQB1 hCV9494470, 1 Rare Allele, CARE Case/Control, Cleaner controls
[16] = HLA-DQB1 hCV9494470, 1 Rare Allele, CARE Prospective, All Possible controls
[17] = HLA-DQB1 hCV9494470, 1 Rare Allele, CARE Prospective, Cleaner controls
[18] = HLA-DQB1 hCV9494470, Case/Control
[19] = HLA-DQB1 hCV9494470, Prospective
[20] = IL1RN hCV8737990, 0 Rare Alleles, CARE Case/Control, Cleaner controls
[21] = IL1RN hCV8737990, 0 Rare Alleles, CARE Prospective, All Possible controls
[22] = IL1RN hCV8737990, 0 Rare Alleles, CARE Prospective, Cleaner controls
[23] = IL1RN hCV8737990, 1 Rare Allele, CARE Case/Control, Cleaner controls
[24] = IL1RN hCV8737990, 1 Rare Allele, CARE Prospective, All Possible controls
[25] = IL1RN hCV8737990, 1 Rare Allele, CARE Prospective, Cleaner controls

Structure (SMILES): CC[C@H](C)C(=O)O[C@H]1C[C@H](O)C=C2C=C[C@H](C)[C@H](CC[C@@H](O)C[C@@H](O)CC(=O)O)[C@H]21 [pravastatin]
- Pravastatin Patients (%) [1]: (14.1%)
- Pravastatin Patients n/total [1]: 74/523
- Pravastatin Patients (%) [2]: (10.3%)
- Pravastatin Patients n/total [2]: 44/426
- Pravastatin Patients (%) [3]: (15.1%)
- Pravastatin Patients n/total [3]: 44/292
- Pravastatin Patients (%) [4]: (10.2%)
- Pravastatin Patients n/total [4]: 44/433
- Pravastatin Patients (%) [5]: (14.9%)
- Pravastatin Patients n/total [5]: 44/295
- 2 Rare Alleles (%), Pravastatin Patients (HLA-DPB1 hCV8851085, CARE Case/Control): (25.7%)
- 2 rare alleles n/total (%), pravastatin patients [6]: (22.9%)
- Pravastatin vs placebo odds ratio, 0 rare alleles [6]: 0.57
- Pravastatin vs placebo odds ratio, 1 rare allele [6]: 0.87
- Pravastatin vs placebo odds ratio, 2 rare alleles [6]: 4.69
- 2 rare alleles n/total (%), pravastatin patients [7]: (22.9%)
- Pravastatin vs placebo odds ratio, 0 rare alleles [7]: 0.58
- Pravastatin vs placebo odds ratio, 1 rare allele [7]: 0.85
- Pravastatin vs placebo odds ratio, 2 rare alleles [7]: 4.15
- 2 Rare Alleles n/total, Pravastatin Patients (HLA-DPB1 hCV25651174, CARE Case/Control): 17/109
- 2 Rare Alleles n/total, Pravastatin Patients (HLA-DPB1 hCV25651174, CARE Prospective): 17/110 and 17/77
- Pravastatin vs placebo odds ratio, 0 rare alleles [8]: 0.59 and 0.51
- Pravastatin vs placebo odds ratio, 1 rare allele [8]: 0.84 and 0.75
- Pravastatin vs placebo odds ratio, 2 rare alleles [8]: 4.39 and 4.91
- Pravastatin vs placebo odds ratio, 0 rare alleles [9]: 0.59 and 0.52
- Pravastatin vs placebo odds ratio, 1 rare allele [9]: 0.84 and 0.72
- Pravastatin vs placebo odds ratio, 2 rare alleles [9]: 4.29 and 4.60
- Pravastatin Patients (%) [10]: (11.1%)
- Pravastatin Patients n/total [10]: 92/826
- Pravastatin Patients (%) [11]: (16.1%)
- Pravastatin Patients n/total [11]: 92/572
- Pravastatin Patients (%) [12]: (11.0%)
- Pravastatin Patients n/total [12]: 92/840
- Pravastatin Patients (%) [13]: (15.8%)
- Pravastatin Patients n/total [13]: 92/583
- Pravastatin Patients (%) [14]: (7.9%)
- Pravastatin Patients n/total [14]: 28/353
- Pravastatin Patients (%) [15]: (11.5%)
- Pravastatin Patients n/total [15]: 28/244
- Pravastatin Patients (%) [16]: (7.8%)
- Pravastatin Patients n/total [16]: 28/361
- Pravastatin Patients (%) [17]: (11.3%)
- Pravastatin Patients n/total [17]: 28/247
- Pravastatin vs placebo odds ratio, 0 rare alleles [18]: 0.99 and 0.90
- Pravastatin vs placebo odds ratio, 1 rare allele [18]: 0.40 and 0.36
- Pravastatin vs placebo odds ratio, 2 rare alleles [18]: 2.00 and 2.22
- Pravastatin vs placebo odds ratio, 0 rare alleles [19]: 0.99 and 0.87
- Pravastatin vs placebo odds ratio, 1 rare allele [19]: 0.42 and 0.38
- Pravastatin vs placebo odds ratio, 2 rare alleles [19]: 2.06 and 2.16
- Pravastatin Patients (%) [20]: (14.9%)
- Pravastatin Patients n/total [20]: 66/444
- Pravastatin Patients (%) [21]: (10.3%)
- Pravastatin Patients n/total [21]: 66/642
- Pravastatin Patients (%) [22]: (14.6%)
- Pravastatin Patients n/total [22]: 66/453
- Pravastatin Patients (%) [23]: (13.0%)
- Pravastatin Patients n/total [23]: 43/332
- Pravastatin Patients (%) [24]: (8.7%)
- Pravastatin Patients n/total [24]: 43/496
- Pravastatin Patients (%) [25]: (12.8%)
- Pravastatin Patients n/total [25]: 43/336
- 2 Rare Alleles (%), Pravastatin Patients (IL1RN hCV8737990, CARE Case/Control): (27.4%)
- 2 rare alleles n/total (%), pravastatin patients (IL1RN hCV8737990, Case/Control): (21.1%)
- Pravastatin vs placebo odds ratio, 0 rare alleles (IL1RN hCV8737990, Case/Control): 0.77
- Pravastatin vs placebo odds ratio, 1 rare allele (IL1RN hCV8737990, Case/Control): 0.50
- Pravastatin vs placebo odds ratio, 2 rare alleles (IL1RN hCV8737990, Case/Control): 1.97
- 2 rare alleles n/total (%), pravastatin patients (IL1RN hCV8737990, Prospective): (20.7%)
- Pravastatin vs placebo odds ratio, 0 rare alleles (IL1RN hCV8737990, Prospective): 0.80
- Pravastatin vs placebo odds ratio, 1 rare allele (IL1RN hCV8737990, Prospective): 0.46
- Pravastatin vs placebo odds ratio, 2 rare alleles (IL1RN hCV8737990, Prospective): 1.92
- Pravastatin vs placebo odds ratio, 0 rare alleles (IL4R hCV2769554, Case/Control): 0.58 and 0.57
